Laboratory results taken from US7169785B2, “Methods and compositions of novel triazine compounds” (Reddy US Therapeutics, Inc., priority 2001, dated 2007).

Tests used:
cells = test: Cytotoxicity / lactate dehydrogenase assay and visual observation of cells; format: cell-based
Description: Assays for determining the activity of compounds capable of cytotoxic activity include those taught in herein and others that are well known in the art. In general, to determine if there is cytotoxic activity associated with a compound, cells of a particular type, in a growing stage or a quiescient stage, are treated with the compound of interest. Various parameters of cell death or cessation are used to measure the effects of the compound. For example, the amount of nucleic acid or protein synthesis can be measured or visual observation of the state of the cells, such as release from the substrate, can be used to measure the state of the cells.
An appropriate number of cells are plated in four 96-well plates, one plate for “day 0” and three plates for days 1–3. Cells are treated with at least one compound of the present invention in varying concentrations with and without the apoptosis inducer cisplatin (2 μM) (“+cis” or “−cis”). Unteated cells are also assayed with and without cisplatin. After transfection, the plates are incubated at 37° C. overnight.
An appropriate number of cells are plated in four 96-well plates, one plate for “day 0” and three plates for days 1–3. Cells are treated with at least one compound of the present invention in varying concentrations. The negative control cells have normal media conditions, a duplicate set of wells is treated with the composition in which the compound is provided, but there is no added compound and the positive control cells are treated with the apoptosis inducer cisplatin (2 μM). All of the cells are transfected with a vector having a promoter that is responsive to apoptosis conditions. When apoptosis occurs, the promoter is turned on and the lactic dehydrogenase gene is activated and the enzyme protein is made and active. Activity is easily detected with a color change. After transfection, the plates are incubated at 37° C. overnight.
About 8 mls of warmed alpha MEM LDH lysis buffer (2% Triton X100) and about 8 mls of culture media (½ dilution) are combined. Two 96-well v-bottom plates are prepared, one labeled “lysis” and one labeled “supernatant.” To lyse the cells, about 200 μl Alpha MEM lysis buffer (diluted ½) is added to one test plate from which the supernatant has been removed and added to the plate labeled supernatant. After mixing, about 200 μl of lysed cells are transferred to the lysis plate. Both the lysis and supernatant plates are centrifuged at about 1600 rpm for about 10 min. After centrifugation, about 100 μl of both the supernatant or lysate is transferred to corresponding 96-well flat-bottomed plates.
The assay for cytotoxicity uses the Cytotoxicity Detection Kit (LDH) from Roche Diagnostics Corp. (Indianapolis, Ind.). Using the directionts provided, the dye solution is mixed and added each well of the lysate and supernatant plate and incubated for up to 20–25 min at 15–25° C. in the dark.

HAEC = test: Toxicity to endothelial cells (HAEC) when TNF stimulated; format: cell-based
Description: (§1) Human aortic endothelial cells (HAEC, Clonetics) were cultured according to manufacturer in growth medium (Clonetics): basal medium containing human epidermal growth factor, hydrocortisone, vascular endothelial growth factor, heparin binding growth factor-B, long R3-insulin-like growth factor-1, ascorbic acid, gentamicin/amphotericin and 5% FBS. These cell were allowed to reach at least 90% confluency before subjected to experimental treatments. Glycated human serum albumin (G-HSA) was from US Biologicals. Tumor necrosis factor α was from R&D Systems.
[…] All treatments, compound-added and controls were carried out in serum free media containing 0.2% albumin. Media from all conditions were collected and used for IL-6 ELISA.

IL-6 = test: TNF-α-induced IL-6 production determined by IL-6 ELISA in HAEC; format: cell-based, human; conditions: Homo sapiens, 24 h, read-out: % IL6 production compare to TNF stimulation of IL6 (100%), HAEC, @ 5 uM
endothelial cells = test: Toxicity to endothelial cells when AGE stimulated; format: cell-based, human
Description: as §1, with “Glycated human serum albumin (G-HSA) was from US Biologicals.” left out
All treatments, compound-added and controls were carried out in serum free media containing 0.2% albumin. Media from all conditions were collected and used for IL-6 ELISA.

COc1ccc(Nc2nc(Nc3ccc(OC)c(Cl)c3)nc(N(C)C3CCN(C)CC3)n2)cc1Cl [Compound 121]
Starts blunting by (cells): 1 µM | Toxic by toxicity assay at (cells): 0.75 µM | rounding by (cells): 5 µM | some toxicity (HAEC; HAEC, @ 5 uM): ~20% | cell death in TNF-stimulated IL6 test (HAEC; human, 24 h, 10 uM): total cell death | activity at 5 µM (IL-6): 50% | Toxic (AGE-treated) (endothelial cells): toxic
